In PubChem BioAssay AID1259407 (Chemical Carcinogenesis Research Information System (CCRIS), 2018):
Calls of active or inactive are those of the source. The rule behind the calls is not given here.

Tested on: CCRIS mutagenicity, Ames/micronucleus/aberration tests
Test: CCRIS mutagenicity studies
[1] = Test System: AMES SALMONELLA TYPHIMURIUM, Strain/Indicator: TA98, Metabolic Activation: NONE, Method: PREINCUBATION
[2] = Test System: AMES SALMONELLA TYPHIMURIUM, Strain/Indicator: TA100, Metabolic Activation: NONE, Method: PREINCUBATION

Nc1nc(=O)n([C@H]2C[C@H](O)[C@@H](CO)O2)cc1I
mutagenic call (Test System: AMES SALMONELLA TYPHIMURIUM, Strain/Indicator: TA97, Metabolic Activation: NONE, Method: PREINCUBATION): inactive; negative
mutagenic call (Test System: AMES SALMONELLA TYPHIMURIUM, Strain/Indicator: TA97, Metabolic Activation: RAT, LIVER, S-9, AROCLOR 1254, Method: PREINCUBATION): inactive; negative
mutagenic call [1]: inactive; negative
mutagenic call (Test System: AMES SALMONELLA TYPHIMURIUM, Strain/Indicator: TA98, Metabolic Activation: RAT, LIVER, S-9, AROCLOR 1254, Method: PREINCUBATION): inactive; negative
mutagenic call [2]: inactive; negative
mutagenic call (Test System: AMES SALMONELLA TYPHIMURIUM, Strain/Indicator: TA100, Metabolic Activation: RAT, LIVER, S-9, AROCLOR 1254, Method: PREINCUBATION): inactive; negative
mutagenic call (Test System: AMES SALMONELLA TYPHIMURIUM, Strain/Indicator: TA102, Metabolic Activation: NONE, Method: PREINCUBATION): inactive; negative
mutagenic call (Test System: AMES SALMONELLA TYPHIMURIUM, Strain/Indicator: TA102, Metabolic Activation: RAT, LIVER, S-9, AROCLOR 1254, Method: PREINCUBATION): inactive; negative
mutagenic call (Test System: AMES SALMONELLA TYPHIMURIUM, Strain/Indicator: TA104, Metabolic Activation: NONE, Method: PREINCUBATION): inactive; negative
mutagenic call (Test System: AMES SALMONELLA TYPHIMURIUM, Strain/Indicator: TA104, Metabolic Activation: RAT, LIVER, S-9, AROCLOR 1254, Method: PREINCUBATION): inactive; negative
mutagenic call (Test System: AMES SALMONELLA TYPHIMURIUM, Strain/Indicator: TA1535, Metabolic Activation: NONE, Method: PREINCUBATION): inactive; negative
mutagenic call (Test System: AMES SALMONELLA TYPHIMURIUM, Strain/Indicator: TA1535, Metabolic Activation: RAT, LIVER, S-9, AROCLOR 1254, Method: PREINCUBATION): inactive; negative
mutagenic call (Test System: AMES SALMONELLA TYPHIMURIUM, Strain/Indicator: TA1537, Metabolic Activation: NONE, Method: PREINCUBATION): inactive; negative
mutagenic call (Test System: AMES SALMONELLA TYPHIMURIUM, Strain/Indicator: TA1537, Metabolic Activation: RAT, LIVER, S-9, AROCLOR 1254, Method: PREINCUBATION): inactive; negative
mutagenic call (Test System: AMES SALMONELLA TYPHIMURIUM, Strain/Indicator: TA1538, Metabolic Activation: NONE, Method: PREINCUBATION): inactive; negative
mutagenic call (Test System: AMES SALMONELLA TYPHIMURIUM, Strain/Indicator: TA1538, Metabolic Activation: RAT, LIVER, S-9, AROCLOR 1254, Method: PREINCUBATION): inactive; negative
mutagenic call (Test System: CHINESE HAMSTER V-79, Strain/Indicator: V-79/8-AZAGUANINE, Metabolic Activation: NONE): inactive; negative

Cc1c2ccccc2c(CO)c2c3c(ccc12)[C@@H](O)[C@H](O)C=C3
mutagenic call (Test System: CHINESE HAMSTER V-79, Strain/Indicator: V-79/6-THIOGUANINE, Metabolic Activation: CELL-MEDIATED, Method: STANDARD PLATE): active; positive
mutagenic call (Test System: CHINESE HAMSTER V-79, Strain/Indicator: V-79/OUABAIN, Metabolic Activation: CELL-MEDIATED, Method: STANDARD PLATE): active; positive

O=CNc1ccc2c(c1)Cc1ccccc1-2
mutagenic call (Test System: AMES SALMONELLA TYPHIMURIUM, Strain/Indicator: TA98, Metabolic Activation: RAT, LIVER, S-9, AROCLOR 1254, Method: STANDARD PLATE): active; positive

O=c1oc2c(O)c(O)cc3c(=O)oc4c(O)c(O)cc1c4c23
mutagenic call [1]: inactive; negative
mutagenic call (Test System: AMES SALMONELLA TYPHIMURIUM, Strain/Indicator: TA98, Metabolic Activation: RAT LIVER S-9, Method: PREINCUBATION): inactive; negative
mutagenic call [2]: inactive; negative
mutagenic call (Test System: AMES SALMONELLA TYPHIMURIUM, Strain/Indicator: TA100, Metabolic Activation: RAT LIVER S-9, Method: PREINCUBATION): inactive; negative
mutagenic call (Test System: Ames Salmonella typhimurium, Strain/Indicator: TA102, Metabolic Activation: None, Method: Preincubation): inactive; negative
mutagenic call (Test System: Ames Salmonella typhimurium, Strain/Indicator: TA102, Metabolic Activation: Rat, Liver, S-9, Aroclor 1254 in 0.154 M KCl, Method: Preincubation): inactive; negative
mutagenic call (Test System: E. COLI, Strain/Indicator: WP2, Metabolic Activation: RAT, LIVER, S-9, AROCLOR 1254, Method: STANDARD PLATE): inactive; negative
mutagenic call (Test System: MOUSE LYMPHOMA, Strain/Indicator: L5178Y (TK+/TK-), Metabolic Activation: NONE, Method: SUSPENSION/PLATE): inactive; negative. reevaluation of results: negative
mutagenic call (Test System: MOUSE LYMPHOMA, Strain/Indicator: L5178Y (TK+/TK-), Metabolic Activation: RAT, LIVER, S-9, AROCLOR 1254, Method: SUSPENSION/PLATE): inactive; negative. reevaluation of results: inconclusive
